Laboratory results reported in patent US20160158251A1, “COMPOSITION FOR PREVENTING OR TREATING MUSCULAR ATROPHY OR PROMOTING MUSCULAR REGENERATION IN SUBJECT COMPRISING SULFONAMIDE COMPOUND AND USE THEREOF” (Samsung Electronics Co., Ltd., priority 2014, published 2016).

Experiments:
[1] = system: Human skeletal muscle satellite (HSkMS) cells; assay: Proliferation of human skeletal muscle satellite cells (cell count by hemocytometer, serum and growth factor starvation); assay type: cell-based; settings: 24 hours, in comparison with serum starvation (FIG. 1)
Description: Human skeletal muscle satellite (HSkMS) cells were prepared to identify whether proliferation of skeletal muscle satellite cells is promoted by sulfonamide compounds.
The seeded HSkMS cells were cultured at 37° C. in a 5% CO2 incubator for 24 hours. Then, 0.1 μM, 1 μM, and 10 μM of each of sulfadiazine (Sigma-Aldrich), sulfamethoxazole (Sigma-Aldrich), sulfadoxine (Sigma-Aldrich), and sulfaguanidine (Sigma-Aldrich), as sulfonamide compounds, were added to the HSkMS cells, and the cells were incubated at 37° C. in a 5% CO2 incubator for 24 hours. After the incubation, the numbers of HSkMS cells were calculated using a hemocytometer.

Atrogin-1 = Atrogin-1 mRNA expression in differentiated C2C12 cells treated with dexamethasone (real time PCR); assay type: cell-based, mouse; settings: sulfadiazine (1, 10 or 100 μM) 24 hours, then 2 μM dexamethasone 24 hours, vs. dexamethasone only (FIG. 2A)
Description: (§1) C2C12 cell lines (mouse gastrocnemius muscle, ATCC® CRL-1772™) were seeded in a 10% FBS/DMEM and incubated at 37° C. in a 5% CO2 incubator. When the cells were 70% confluent, the culture medium was replaced with 2% FBS/DMEM and the cells were cultured for 4 days to completely induce differentiation into muscle cells. C2C12 cell lines are mouse myoblast cell lines obtained by continuous culture of myoblast cells cultured from gastrocnemius muscle of C3H mice.
(§2) When C2C12 cells were completely differentiated into muscle cells, the culture medium was removed therefrom, and 4 ml of a fresh culture medium including 1 μM, 10 μM, or 100 μM of sulfadiazine (Sigma Aldrich) was added thereto, and then, the cells were cultured at 37° C. in a 5% CO2 incubator for 24 hours. […]
(§3) A Trizol reagent (Invitrogen) was added to the collected cells, and total RNA was separated therefrom according to manufacturer's protocols. […] Amounts of mRNA of Atrogin-1 and MuRF-1 were quantified using a real time PCR device (MyiQPCR instrument, BioRad) that is a device measuring SYBR Green. […]
(§4) Values obtained via amplification were normalized to GAPDH gene expression, and relative expression levels of mRNA of Atrogin-1 and MURF-1 were quantified. The quantified relative expression levels (arbitrary unit (AU)) of mRNA of Atrogin-1 and MURF-1 are illustrated in FIGS. 2A and 2B, respectively (*: p<0.05 vs. dexamethasone)

MuRF-1 = MuRF-1 mRNA expression in differentiated C2C12 cells treated with dexamethasone (real time PCR); assay type: cell-based, mouse; settings: sulfadiazine (1, 10 or 100 μM) 24 hours, then 2 μM dexamethasone 24 hours, vs. dexamethasone only (FIG. 2B)
Description: as §1, §2, §3, §4

Cc1cc(NS(=O)(=O)c2ccc(N)cc2)no1 [sulfamethoxazole]
proliferation of the HSkMS cells ([1]; 10 μM): promoted in all groups, in comparison with serum starvation, except for the groups

Nc1ccc(S(=O)(=O)Nc2ncccn2)cc1 [sulfadiazine]
proliferation of the HSkMS cells ([1]; 1 μM): promoted in all groups, in comparison with serum starvation, except for the groups | proliferation of the HSkMS cells ([1]; 10 μM): promoted in all groups, in comparison with serum starvation, except for the groups | expression of mRNA of Atrogin-1 (Atrogin-1): decreased | expression of mRNA of MuRF1 (MuRF-1): decreased

NC(N)=NS(=O)(=O)c1ccc(N)cc1 [sulfaguanidine]
proliferation of the HSkMS cells ([1]; 10 μM): promoted in all groups, in comparison with serum starvation, except for the groups
